We go through ten molecules from patent US12139492B2 (Endotarget Inc., priority 2021, dated 2024).

Molecules are shown by their SMILES. Bounds are passed on as bounds.

The test system of one assay is Mino cells. Kind of assay: Antiproliferative effect, MTS cell viability assay, Mino cells. The settings on record: Homo sapiens, MINO, Mino mantle cell lymphoma cells; read-out: IC50 (anti-proliferation) Mino cells. In kind it is cell-based. The method, boiled down:
(§1)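 Tested at six concentrations (0 to 10 μM in tenfold steps), 72 h; viability by MTS, A490.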

In assay [1] the target is T1, BTK (Homo sapiens, UniProt Q06187). Kind of assay: Degradation of BTK protein in Namalwa cells (Western blot; DC50, Dmax). The settings on record: Namalwa B lymphocyte cells, Western blot; for degradation of BTK protein: various concentrations, 24 hours.
The target in assay [2] is T1, BTK. Kind of assay: BTK degradation, DC50 and Dmax of Table 1 (cell line not given). In kind it is cell-based. Set-up: endogenous in cells. Particulars: for DC50: concentration giving 50% reduction of BTK expression level.
A further assay deals with JeKo-1 cells. Kind of assay: Antiproliferative effect, MTS cell viability assay, JeKo-1 cells. In kind it is cell-based. The settings on record: Homo sapiens; JeKo-1 mantle cell lymphoma cells; read-out: IC50 (anti-proliferation) JeKO-1 cells. A digest of the protocol: as §1

T1 sequence (Q06187 whole entry): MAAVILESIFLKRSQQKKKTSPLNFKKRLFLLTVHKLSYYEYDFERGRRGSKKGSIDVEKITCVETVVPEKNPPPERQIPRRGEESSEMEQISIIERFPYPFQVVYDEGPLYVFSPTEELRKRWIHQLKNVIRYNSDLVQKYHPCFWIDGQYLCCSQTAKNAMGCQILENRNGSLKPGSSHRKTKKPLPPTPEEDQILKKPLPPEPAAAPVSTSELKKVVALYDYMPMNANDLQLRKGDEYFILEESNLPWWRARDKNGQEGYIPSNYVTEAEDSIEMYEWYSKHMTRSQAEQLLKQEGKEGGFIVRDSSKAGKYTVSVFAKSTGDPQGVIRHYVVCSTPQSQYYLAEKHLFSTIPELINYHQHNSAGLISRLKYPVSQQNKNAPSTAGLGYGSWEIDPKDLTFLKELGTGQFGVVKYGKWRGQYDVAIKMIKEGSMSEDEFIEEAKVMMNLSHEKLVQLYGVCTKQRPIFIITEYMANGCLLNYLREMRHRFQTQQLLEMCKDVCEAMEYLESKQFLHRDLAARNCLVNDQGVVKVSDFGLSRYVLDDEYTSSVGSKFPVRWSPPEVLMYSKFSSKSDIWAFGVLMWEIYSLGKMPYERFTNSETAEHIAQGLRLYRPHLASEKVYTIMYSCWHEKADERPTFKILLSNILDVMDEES

With `Nc1ncnc2c1c(-c1ccc(Oc3ccccc3)cc1)nn2[C@@H]1CCCN(CC2CCN(C(=O)N3CCN(c4ccc5c(c4)C(=O)N(C4CCC(=O)NC4=O)C5=O)CC3)CC2)C1` (stereo partly drawn) [Compound 25, 5-(4-(4-(((R)-3-(4-amino-3-(4-phenoxyphenyl)-1H-pyrazolo(3,4-d)pyrimidin-1-yl)piperidin-1-yl)methyl)piperidine-1-carbonyl)piperazin-1-yl)-2-(2,6-dioxopiperidin-3-yl)isoindoline-1,3-dione], in the assay on Mino cells, the IC50 was in the range of 1 to 10 µM. On BTK [1], the “degradation of BTK protein at 10^−6 M” value is on record as “degradation”. On BTK [2], the maximal degradation (Dmax) is > 75% and the half-maximal degradation concentration (DC50) was > 50 nM. Also, the IC50 in the assay on JeKo-1 cells lay within 1 to 10 µM.

As for `Nc1ncnc2c1c(-c1ccc(Oc3ccccc3)cc1)nn2[C@@H]1CCCN(CC2CCN(C(=O)N3CCC(C4CCN(c5ccc6c(c5)C(=O)N(C5CCC(=O)NC5=O)C6=O)CC4)CC3)CC2)C1` (stereo partly drawn) [Compound 29, 5-(1′-(4-(((R)-3-(4-amino-3-(4-phenoxyphenyl)-1H-pyrazolo(3,4-d)pyrimidin-1-yl)piperidin-1-yl)methyl)piperidine-1-carbonyl)-(4,4′-bipiperidin)-1-yl)-2-(2,6-dioxopiperidin-3-yl)isoindoline-1,3-dione], in the assay with Mino cells, the IC50 lay within 1 to 10 µM. For the same molecule, the “degradation of BTK protein at 10^−6 M” value on BTK [1] is “degradation”. Moreover, on BTK [2], the Dmax is > 90% and the DC50 is > 50 nM. In the assay with JeKo-1 cells, the IC50 lay within 1 to 10 µM.

As for `Nc1ncnc2c1c(-c1ccc(Oc3ccccc3)cc1)nn2[C@@H]1CCCN(CC2CCN(C(=O)N3CCC(CN4CCN(c5ccc6c(c5)C(=O)N(C5CCC(=O)NC5=O)C6=O)CC4)CC3)CC2)C1` (stereo partly drawn) [Compound 31, 5-(4-((1-(4-(((R)-3-(4-amino-3-(4-phenoxyphenyl)-1H-pyrazolo(3,4-d)pyrimidin-1-yl)piperidin-1-yl)methyl)piperidine-1-carbonyl)piperidin-4-yl)methyl)piperazin-1-yl)-2-(2,6-dioxopiperidin-3-yl)isoindoline-1,3-dione], the IC50 with Mino cells lay in the range of 1 to 10 µM. For the same molecule, at BTK [1], the “degradation of BTK protein at 10^−6 M” value is given as “degradation” and the “degradation of BTK protein” value is “dose-dependent degradation”. For the same molecule, at BTK [2], the greatest degradation seen (Dmax) is > 90% and the DC50 was 10 to 50 nM. The IC50 in the assay on JeKo-1 cells is 1 to 10 µM.

Regarding `Nc1ncnc2c1c(-c1ccc(Oc3ccccc3)cc1)nn2[C@@H]1CCCN(CC2CCN(C(=O)N3CCC(CCN4CCN(c5ccc6c(c5)C(=O)N(C5CCC(=O)NC5=O)C6=O)CC4)CC3)CC2)C1` (stereo partly drawn) [Compound 33, 5-(4-(2-(1-(4-(((R)-3-(4-amino-3-(4-phenoxyphenyl)-1H-pyrazolo(3,4-d)pyrimidin-1-yl)piperidin-1-yl)methyl)piperidine-1-carbonyl)piperidin-4-yl)ethyl)piperazin-1-yl)-2-(2,6-dioxopiperidin-3-yl)isoindoline-1,3-dione], in the assay with Mino cells, the IC50 lay within 1 to 10 µM. Besides, at BTK [1], the “degradation of BTK protein at 10^−6 M” value is on record as “degradation” and the “degradation of BTK protein” value is “dose-dependent degradation”. In addition, at BTK [2], the Dmax was > 90% and the DC50 was > 50 nM. For the same molecule, the IC50 in the assay with JeKo-1 cells lay within 1 to 10 µM.

Regarding `Nc1ncnc2c1c(-c1ccc(Oc3ccccc3)cc1)nn2C1CCN(CC2CCN(C(=O)N3CCN(c4ccc5c(c4)C(=O)N(C4CCC(=O)NC4=O)C5=O)CC3)CC2)CC1` (stereo not drawn) [Compound 35, 5-(4-(4-((4-(4-amino-3-(4-phenoxyphenyl)-1H-pyrazolo(3,4-d)pyrimidin-1-yl)piperidin-1-yl)methyl)piperidine-1-carbonyl)piperazin-1-yl)-2-(2,6-dioxopiperidin-3-yl)isoindoline-1,3-dione], in the assay with Mino cells, the IC50 was < 1 µM. Also, at BTK [1], the “degradation of BTK protein at 10^−6 M” value was “degradation” and the “degradation of BTK protein” value is “dose-dependent degradation”. On BTK [2], the maximal degradation (Dmax) is > 90% and the half-maximal degradation concentration (DC50) was < 10 nM. Moreover, the IC50 in the assay on JeKo-1 cells fell in the range of 1 to 10 µM.

Consider `Nc1ncnc2c1c(-c1ccc(Oc3ccccc3)cc1)nn2[C@@H]1CCCN(C2CCN(C(=O)N3CCN(CCCC4CCN(c5ccc6c(c5)CN(C5CCC(=O)NC5=O)C6=O)CC4)CC3)CC2)C1` (stereo partly drawn) [Compound 190, 3-(5-(4-(3-(4-((R)-3-(4-amino-3-(4-phenoxyphenyl)-1H-pyrazolo[3,4-d]pyrimidin-1-yl)-[1,4′-bipiperidine]-1′-carbonyl)piperazin-1-yl)propyl)piperidin-1-yl)-1-oxoisoindolin-2-yl)piperidine-2,6-dione], for which the IC50 in the assay on Mino cells and in the assay on JeKo-1 cells was > 10 µM in each case. In addition, the Dmax on BTK [2] is > 50%. For the same molecule, the 50% degradation concentration (DC50) at BTK [2] is > 50 nM.

As for `Nc1ncnc2c1c(-c1ccc(Oc3ccccc3)cc1)nn2[C@@H]1CCCN(C2CCN(C(=O)N3CCN(CCCN4CCC(c5ccc6c(c5)C(=O)N(C5CCC(=O)NC5=O)C6=O)CC4)CC3)CC2)C1` (stereo partly drawn) [Compound 191, 5-(1-(3-(4-((R)-3-(4-amino-3-(4-phenoxyphenyl)-1H-pyrazolo[3,4-d]pyrimidin-1-yl)-[1,4′-bipiperidine]-1′-carbonyl)piperazin-1-yl)propyl)piperidin-4-yl)-2-(2,6-dioxopiperidin-3-yl)isoindoline-1,3-dione], in the assay on Mino cells, the IC50 is > 10 µM. For the same molecule, on BTK [2], the Dmax was > 75% and the DC50 lay within 10 to 50 nM. The IC50 in the assay on JeKo-1 cells was > 10 µM.

`Nc1ncnc2c1c(-c1ccc(Oc3ccccc3)cc1)nn2[C@@H]1CCCN(C2CCN(C(=O)N3CCN(CCCN4CCC(c5ccc6c(c5)CN(C5CCC(=O)NC5=O)C6=O)CC4)CC3)CC2)C1` (stereo partly drawn) [Compound 192, 3-(5-(1-(3-(4-((R)-3-(4-amino-3-(4-phenoxyphenyl)-1H-pyrazolo[3,4-d]pyrimidin-1-yl)-[1,4′-bipiperidine]-1′-carbonyl)piperazin-1-yl)propyl)piperidin-4-yl)-1-oxoisoindolin-2-yl)piperidine-2,6-dione]: the IC50 in the assay with Mino cells and with JeKo-1 cells was > 10 µM each time. The Dmax on BTK [2] was > 75%. Also, at BTK [2], the 50% degradation concentration (DC50) was in the range of 10 to 50 nM.

As to `Nc1ncnc2c1c(-c1ccc(Oc3ccccc3)cc1)nn2[C@@H]1CCCN(C2CCN(C(=O)N3CCC(CCCN4CCN(c5ccc6c(c5)C(=O)N(C5CCC(=O)NC5=O)C6=O)CC4)CC3)CC2)C1` (stereo partly drawn) [Compound 193, 5-(4-(3-(1-((R)-3-(4-amino-3-(4-phenoxyphenyl)-1H-pyrazolo[3,4-d]pyrimidin-1-yl)-[1,4′-bipiperidine]-1′-carbonyl)piperidin-4-yl)propyl)piperazin-1-yl)-2-(2,6-dioxopiperidin-3-yl)isoindoline-1,3-dione], the IC50 in the assay on Mino cells was 1 to 10 µM. At BTK [2], the greatest degradation seen (Dmax) is > 50% and the DC50 lay within 10 to 50 nM. Besides, in the assay on JeKo-1 cells, the IC50 was > 10 µM.

Turning to `Nc1ncnc2c1c(-c1ccc(Oc3ccccc3)cc1)nn2[C@@H]1CCCN(C2CCN(C(=O)N3CCC(CCCN4CCN(c5ccc6c(c5)CN(C5CCC(=O)NC5=O)C6=O)CC4)CC3)CC2)C1` (stereo partly drawn) [Compound 194, 3-(5-(4-(3-(1-((R)-3-(4-amino-3-(4-phenoxyphenyl)-1H-pyrazolo[3,4-d]pyrimidin-1-yl)-[1,4′-bipiperidine]-1′-carbonyl)piperidin-4-yl)propyl)piperazin-1-yl)-1-oxoisoindolin-2-yl)piperidine-2,6-dione], the IC50 in the assay on Mino cells and in the assay on JeKo-1 cells was 1 to 10 µM each time. In addition, at BTK [2], the Dmax was > 75%. Further, on BTK [2], the DC50 was in the range of 10 to 50 nM.
